In the test the target is T1, PD-1-Ig binding to PD-L1-TVMV-His (PD-L1-His) (Homo sapiens, UniProt Q9NZQ7).
T1 construct: hPDL1(19-239)-TVMV-His; made in house; host or cells: HEK293T cells
Description: PD-1/PD-L1 Homogenous Time-Resolved Fluorescence (HTRF) binding assay. As to conditions: PD-1-Ig (20 nM) / PD-L1-His (10 nM); range classes. The text has this:
The ability of the macrocyclic peptides of the present disclosure to bind to PD-L1 was investigated using a PD-1/PD-L1 Homogenous Time-Resolved Fluorescence (HTRF) binding assay.
Homogenous Time-Resolved Fluorescence (HTRF) Assays of Binding of Soluble PD-1 to Soluble PD-L1. Soluble PD-1 and soluble PD-L1 refers to proteins with carboxyl-end truncations that remove the transmembrane-spanning regions and are fused to heterologous sequences, specifically the Fc portion of the human immunoglobuling G sequence (Ig) or the hexahistidine epitope tag (His). All binding studies were performed in an HTRF assay buffer consisting of dPBS supplemented with 0.1% (w/v) bovine serum albumin and 0.05% (v/v) Tween-20. For the PD-1-Ig/PD-L1-His binding assay, inhibitors were pre-incubated with PD-L1-His (10 nM final) for 15 m in 4 μl of assay buffer, followed by addition of PD-1-Ig (20 nM final) in 1 μl of assay buffer and further incubation for 15 m. PD-L1 fusion proteins from either human, cynomologous macaques, mouse, or other species were used. HTRF detection was achieved using europium crypate-labeled anti-Ig monoclonal antibody (1 nM final) and allophycocyanin (APC) labeled anti-His monoclonal antibody (20 nM final). Antibodies were diluted in HTRF detection buffer and 5 μl was dispensed on top of binding reaction. […] Additional binding assays were established between PD-1-Ig/PD-L2-His (20 and 5 nM, respectively), CD80-His/PD-L1-Ig (100 and 10 nM, respectively) and CD80-His/CTLA4-Ig (10 and 5 nM, respectively).
Recombinant Proteins. […] Human PD-L2-His (Sino Biologicals), CD80-His (Sino Biologicals), CTLA4-Ig (RnD Systems) were all obtained through commercial sources.
For orientation: In TR-FRET formats the signal depends on donor and acceptor labels being close together.

Positions of bridges follow the written chain, without caps; N, C: chain ends. Non-standard residues stand in square brackets, D forms with d. Residues, ends and D or L forms follow the SMILES beside them. Trp(1-CH2COOH) = N[C@@H](Cc1cn(CC(=O)O)c2ccccc12)C(=O)O; Phe(4-Me) = Cc1ccc(C[C@H](N)C(=O)O)cc1; Hyp = O=C(O)[C@@H]1C[C@@H](O)CN1; Aad = N[C@@H](CCCC(=O)O)C(=O)O; NMeNle = CCCC[C@H](NC)C(=O)O; Pip = O=C(O)[C@@H]1CCCCN1; NMeA = CN[C@@H](C)C(=O)O; Orn = NCCC[C@H](N)C(=O)O; Dab = NCC[C@H](N)C(=O)O; Dap = NC[C@H](N)C(=O)O; AEA = NCCOCC(=O)O; βAla = NCCC(=O)O

One may read the IC50 as the concentration needed to halve the response being measured. Read a low IC50 as inhibition by little substance.

T1 sequence (Q9NZQ7 with tags, fused parts or gaps): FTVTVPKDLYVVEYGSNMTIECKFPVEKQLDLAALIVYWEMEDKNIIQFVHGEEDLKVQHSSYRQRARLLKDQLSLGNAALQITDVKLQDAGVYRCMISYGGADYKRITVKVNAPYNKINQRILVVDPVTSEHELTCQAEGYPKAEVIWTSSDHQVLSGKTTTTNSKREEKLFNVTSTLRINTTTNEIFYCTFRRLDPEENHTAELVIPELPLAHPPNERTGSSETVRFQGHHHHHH

For the compound `CCCC[C@H]1C(=O)N(C)[C@@H](CCCC)C(=O)N[C@@H](CC(C)C)C(=O)N[C@H](C(N)=O)CCCC(=O)N[C@@H](Cc2ccc(C)cc2)C(=O)N2CCCC[C@H]2C(=O)N[C@@H](CC(=O)O)C(=O)N2CCC[C@H]2C(=O)N[C@@H](CN)C(=O)N[C@@H](CC(C)C)C(=O)N2C[C@H](O)C[C@H]2C(=O)N[C@@H](Cc2c[nH]c3ccccc23)C(=O)N[C@@H](CCN)C(=O)N[C@@H](Cc2cn(CC(=O)O)c3ccccc23)C(=O)N1C` [Example 10553] ([Phe(4-Me)][Pip]DP[Dap]L[Hyp]W[Dab][Trp(1-CH2COOH)][NMeNle][NMeNle]L[Aad]-NH2; lactam N-14), the 50% inhibitory concentration (IC50) is 10 to 99 nM. With `CCCC[C@H]1C(=O)N(C)[C@@H](CCCC)C(=O)N[C@@H](CC(C)C)C(=O)N[C@@H](C)C(=O)NCC(=O)N[C@@H](Cc2ccc(O)cc2)C(=O)N(C)[C@@H](C)C(=O)N[C@@H](CC(N)=O)C(=O)N2CCC[C@H]2C(=O)N[C@@H](CN)C(=O)N[C@@H](CC(C)C)C(=O)N2C[C@H](O)C[C@H]2C(=O)N[C@@H](Cc2c[nH]c3ccccc23)C(=O)N[C@@H](CCN)C(=O)N[C@@H](Cc2c[nH]c3ccccc23)C(=O)N1C` [Example 5006] (cyclo(AGY[NMeA]NP[Dap]L[Hyp]W[Dab]W[NMeNle][NMeNle]L)) the figure was 10 to 99 nM. The compound `CCCC[C@H]1C(=O)N(C)[C@@H](CCCC)C(=O)N[C@@H](CC(C)C)C(=O)N[C@H](C(=O)NCC(N)=O)CCCC(=O)N[C@@H](Cc2ccc(O)cc2)C(=O)N(C)[C@@H](C)C(=O)N[C@@H](CC(=O)O)C(=O)N2CCC[C@H]2C(=O)N[C@@H](Cc2c[nH]cn2)C(=O)N[C@@H](CCCCN)C(=O)N2C[C@H](O)C[C@H]2C(=O)N[C@@H](Cc2c[nH]c3ccccc23)C(=O)N[C@@H](CCCCN)C(=O)N[C@@H](Cc2cn(CC(=O)O)c3ccccc23)C(=O)N1C` [Example 10516] (Y[NMeA]DPHK[Hyp]WK[Trp(1-CH2COOH)][NMeNle][NMeNle]L[Aad]G-NH2; lactam N-14) displayed an IC50 of 10 to 99 nM. Compound `CCCC[C@H]1C(=O)N(C)[C@@H](CCCC)C(=O)N[C@@H](CC(C)C)C(=O)NCCOCC(=O)N[C@@H](Cc2ccc(O)cc2)C(=O)N(C)[C@@H](C)C(=O)N[C@@H](CC(N)=O)C(=O)N2CCC[C@H]2C(=O)N[C@@H](CN)C(=O)N[C@@H](CC(C)C)C(=O)N2C[C@H](O)C[C@H]2C(=O)N[C@@H](Cc2c[nH]c3ccccc23)C(=O)N[C@@H](CO)C(=O)N[C@@H](Cc2cn(CC(=O)O)c3ccccc23)C(=O)N1C` [Example 10503] (cyclo([AEA]Y[NMeA]NP[Dap]L[Hyp]WS[Trp(1-CH2COOH)][NMeNle][NMeNle]L)) yielded an IC50 of 10 to 99 nM. Consider `CCCC[C@H]1C(=O)N(C)[C@@H](CCCC)C(=O)N[C@@H](CC(C)C)C(=O)N[C@H](C(=O)NCC(N)=O)CCCNCC(=O)N[C@@H](Cc2ccc(O)cc2)C(=O)N(C)[C@@H](C)C(=O)N[C@@H](CC(N)=O)C(=O)N2CCC[C@H]2C(=O)N[C@@H](Cc2cnc[nH]2)C(=O)N[C@@H](CC(C)C)C(=O)N2C[C@H](O)C[C@H]2C(=O)N[C@@H](Cc2c[nH]c3ccccc23)C(=O)NCC(=O)N[C@@H](Cc2c[nH]c3ccccc23)C(=O)N1C` [Example 10028], for which the IC50 lay in the range of 100 to 10000 nM. `CCCC[C@H]1C(=O)N(C)[C@@H](CCCC)C(=O)N[C@@H](CC(C)C)C(=O)N[C@H](C(=O)NCC(N)=O)CNCC(=O)N[C@@H](Cc2ccc(O)cc2)C(=O)N(C)[C@@H](C)C(=O)N[C@@H](CC(N)=O)C(=O)N2CCC[C@H]2C(=O)N[C@@H](CN)C(=O)N[C@@H](CC(C)C)C(=O)N2C[C@H](O)C[C@H]2C(=O)N[C@@H](Cc2c[nH]c3ccccc23)C(=O)N[C@@H](CCCN)C(=O)N[C@@H](Cc2cn(CC(=O)O)c3ccccc23)C(=O)N1C` [Example 1036] displayed an IC50 of 1 to 9.9 nM. The compound `CCCC[C@H]1C(=O)N(C)[C@@H](CCCC)C(=O)N[C@@H](CC(C)C)C(=O)N[C@H](C(N)=O)CCCC(=O)N[C@@H](Cc2ccc(OC)cc2)C(=O)N2CCCC[C@H]2C(=O)N[C@@H](CC(N)=O)C(=O)N2CCC[C@H]2C(=O)N[C@@H](CN)C(=O)N[C@@H](CC(C)C)C(=O)N2C[C@H](O)C[C@H]2C(=O)N[C@@H](Cc2c[nH]c3ccccc23)C(=O)N[C@@H](CCN)C(=O)N[C@@H](Cc2cn(CC(=O)O)c3ccccc23)C(=O)N1C` [Example 10525] (Y(Me)[Pip]NP[Dap]L[Hyp]W[Dab][Trp(1-CH2COOH)][NMeNle][NMeNle]L[Aad]-NH2; lactam N-14) had a half-inhibitory concentration (IC50) of 10 to 99 nM. As to `CCCC[C@H]1C(=O)N(C)[C@@H](CCCC)C(=O)N[C@@H](CC(C)C)C(=O)NCCC(=O)N[C@@H](Cc2ccc(O)cc2)C(=O)N(C)[C@@H](C)C(=O)N[C@@H](CC(N)=O)C(=O)N2CCC[C@H]2C(=O)N[C@@H](Cc2c[nH]cn2)C(=O)N[C@@H](CC(C)C)C(=O)N2C[C@H](O)C[C@H]2C(=O)N[C@@H](Cc2c[nH]c3ccccc23)C(=O)NCC(=O)N[C@@H](Cc2c[nH]c3ccccc23)C(=O)N1C` [Example 5003] (cyclo(GW[NMeNle][NMeNle]L[βAla]Y[NMeA]NPHL[Hyp]W)), the half-maximal inhibitory concentration (IC50) lay within 100 to 10000 nM. As to `CCCC[C@H]1C(=O)N(C)[C@@H](CCCC)C(=O)N[C@@H](CC(C)C)C(=O)N[C@H](C(N)=O)CNCC(=O)N[C@@H](Cc2ccc(OC)cc2)C(=O)N2CCCC[C@H]2C(=O)N[C@@H](CC(N)=O)C(=O)N2CCC[C@H]2C(=O)N[C@@H](CN)C(=O)N[C@@H](CC(C)C)C(=O)N2C[C@H](O)C[C@H]2C(=O)N[C@@H](Cc2c[nH]c3ccccc23)C(=O)N[C@@H](CCN)C(=O)N[C@@H](Cc2cn(CC(=O)O)c3ccccc23)C(=O)N1C` [Example 1042], the IC50 fell in the range of 10 to 99 nM. `CCCC[C@H]1C(=O)N(C)[C@@H](CCCC)C(=O)N[C@@H](CCC(=O)O)C(=O)N[C@H](C(=O)NCC(N)=O)CNCC(=O)N[C@@H](Cc2ccc(F)cc2)C(=O)N(C)[C@@H](C)C(=O)N[C@@H](CC(N)=O)C(=O)N2CCC[C@H]2C(=O)N[C@@H](CCC(N)=O)C(=O)N[C@@H](CC(=O)O)C(=O)N2C[C@H](O)C[C@H]2C(=O)N[C@@H](Cc2c[nH]c3ccccc23)C(=O)N[C@@H](CC(N)=O)C(=O)N[C@@H](Cc2cn(CC(=O)O)c3ccccc23)C(=O)N1C` [Example 9023] registered a half-inhibitory concentration (IC50) of 10 to 99 nM. `CCCC[C@H]1C(=O)N(C)[C@@H](CCCC)C(=O)NC(CC(C)C)C(=O)N[C@H](C(=O)NCC(N)=O)CNCC(=O)N[C@@H](Cc2ccc(O)cc2)C(=O)N(C)[C@@H](C)C(=O)N[C@@H](CC(N)=O)C(=O)N2CCC[C@H]2C(=O)N[C@@H](CC(N)=O)C(=O)N[C@@H](CC(C)C)C(=O)N2C[C@H](O)C[C@H]2C(=O)N[C@@H](Cc2c[nH]c3ccccc23)C(=O)N[C@@H](CC(N)=O)C(=O)N[C@@H](Cc2c[nH]c3ccccc23)C(=O)N1C` (stereo partly drawn) [Example 10001] displayed a half-maximal inhibitory concentration (IC50) of 1 to 9.9 nM.

In turn, `CCCC[C@H]1C(=O)N(C)[C@@H](CCCC)C(=O)N[C@@H](CC(C)C)C(=O)NCCC[C@H](N)C(=O)N[C@@H](Cc2ccc(C)cc2)C(=O)N2CCCC[C@H]2C(=O)N[C@@H](CC(N)=O)C(=O)N2CCC[C@H]2C(=O)N[C@@H](CN)C(=O)N[C@@H](CC(C)C)C(=O)N2C[C@H](O)C[C@H]2C(=O)N[C@@H](Cc2c[nH]c3ccccc23)C(=O)N[C@@H](CCN)C(=O)N[C@@H](Cc2cn(CC(=O)O)c3ccccc23)C(=O)N1C` [Example 10519] (H-[Orn][Phe(4-Me)][Pip]NP[Dap]L[Hyp]W[Dab][Trp(1-CH2COOH)][NMeNle][NMeNle]L; lactam 1-C) returned an IC50 of 10 to 99 nM. With `CCCC[C@H]1C(=O)N(C)[C@@H](CCCC)C(=O)N[C@@H](CC(C)C)C(=O)N[C@H](C(=O)NCC(N)=O)CNCC(=O)N[C@@H](Cc2ccc(O)cc2)C(=O)N(C)[C@@H](C)C(=O)N[C@@H](CC(=O)O)C(=O)N2CCC[C@H]2C(=O)N[C@@H](CCC(N)=O)C(=O)N[C@@H](CC(=O)O)C(=O)N2C[C@H](O)C[C@H]2C(=O)N[C@@H](Cc2c[nH]c3ccccc23)C(=O)N[C@@H](CC(N)=O)C(=O)N[C@@H](Cc2cn(CC(=O)O)c3ccccc23)C(=O)N1C` [Example 9013] the figure was 10 to 99 nM. To `CCCC[C@H]1C(=O)N(C)[C@@H](CCCC)C(=O)N[C@@H](CC(C)C)C(=O)N[C@H](C(=O)NCC(N)=O)CNCC(=O)N[C@@H](Cc2ccc(O)cc2)C(=O)N(C)[C@@H](C)C(=O)N[C@@H](CC(=O)O)C(=O)N2CCC[C@H]2C(=O)N[C@@H](CCC(N)=O)C(=O)N[C@@H](CC(C)C)C(=O)N2C[C@H](O)C[C@H]2C(=O)N[C@@H](Cc2c[nH]c3ccccc23)C(=O)N[C@@H](CC(N)=O)C(=O)N[C@@H](Cc2cn(CC(=O)O)c3ccccc23)C(=O)N1C` [Example 9012] belongs 10 to 99 nM; to `CCCC[C@H]1C(=O)N(C)[C@@H](CCCC)C(=O)N[C@@H](CCC(=O)O)C(=O)N[C@H](C(=O)NCC(N)=O)CNCC(=O)N[C@@H](Cc2ccc(O)cc2)C(=O)N(C)[C@@H](C)C(=O)N[C@@H](CC(N)=O)C(=O)N2CCC[C@H]2C(=O)N[C@@H](CCC(N)=O)C(=O)N[C@@H](CCC(=O)O)C(=O)N2C[C@H](O)C[C@H]2C(=O)N[C@@H](Cc2c[nH]c3ccccc23)C(=O)N[C@@H](CC(N)=O)C(=O)N[C@@H](Cc2cn(CC(=O)O)c3ccccc23)C(=O)N1C` [Example 9020], 10 to 99 nM.

For the origin of these results see US9732119B2, “Immunomodulators” (BRISTOL-MYERS SQUIBB COMPANY, priority 2014, dated 2017).
